{
  "source": "patent US9687529B2",
  "about": "“Method of controlling coagulation” (Duke University, priority 2011, dated 2017)",
  "key": {"[1]": {"test_system": "human blood", "test": "Ex vivo extracorporeal oxygenator minicircuit with ACT+ monitoring", "settings": "human blood in ex vivo minicircuit; average donor baseline 115 seconds; FIG. 25 doses: UFH 5 U/mL, 9.3T 1 μM, 11F7T 2 μM, R9D-14T 5 μM, 11F7T 0.5 μM+R9D-14T 5 μM", "protocol": "The extracorporeal minicircuit consisted of a sample line, custom-designed 8 mL Plexiglas® venous reservoir, a mechanical roller pump (MasterFlex®; Cole-Parmer Instrument Co., Vernon Hills, Ill.), and a custom-designed small-volume oxygenator that are all connected by MasterFlex precision silicone tubing (Cole-Parmer Instrument Co.) (de Lange et al, Br J Anaesth 99:177-83 (2007), de Lange et al, J Cardiothorac Surg 3:51 (2008). The 4 mL priming volume oxygenator is comprised of two Plexiglas® shells (12.8 cm×12.8 cm×2.7 cm) that cover a disposable three layer artificial diffusion membrane comprised of hollow polypropylene fibers glued together in a crosswise fashion. The surface area available for gas exchange is 558 cm^2. To prevent heat loss, one of the shells has an integrated heat exchanger, and the temperature was maintained at approximately 33° C. with a circulating water bath system (Gaymar Industries, Orchard Park, N.Y.). A MEAS reusable temperature probe (Model 451, Measurement Specialties Inc., Dayton, Ohio) was inserted into the reservoir to continuously measure the temperature, and an in-line flow probe (2N806 flow probe and T208 volume flowmeter; Transonics Systems, Inc., Ithaca, N.Y.) was used to continuously measure the blood flow. The circuit blood O2 level was maintained at 95% and the CO2 was maintained at 5%.\nThe minicircuit was primed with phosphate buffered saline (PBS) at a flow rate of 50 mL/min for approximately 30 min. Blood was drawn from healthy, consented volunteers and anticoagulated with 3.2% sodium citrate. Approximately 25 mL of citrated blood was incubated with 500 μL of anticoagulant (i.e., UFH or aptamer) at 37° C. for 5 min. The PBS was drained from the minicircuit, and the blood was added and circulated at a rate of 50 mL/min with 95% O2/5% CO2 at approximately 33° C. […] The venous blood gases were analyzed with a GEM Premier 3000 blood gas/electrolyte analyzer (model 5700; Instrumentation Laboratories, Inc, Lexington, Mass.) to determine the hematocrit, CaCl2, O2, and CO2 levels. […]"}, "[2]": {"test_system": "clot formation in whole blood", "test": "TEG of whole blood, coagulation triggered by tissue factor (Example I)", "assay_type": "cell-based", "settings": "TF; for clot formation (in words): FVIIa aptamer 0.5, FIXa aptamer 1.0, FXa aptamer 1.0 micromolar", "protocol": "TEG is a waveform generated from serial measurements of the torque transmitted from a small oscillating cup to the tip of a metal pin inserted into the cup by a 360 microliter sample of blood or plasma added to the cup.\nA 360 microliter blood sample has been added to the cup. For 180 minutes after the sample is added, the cup oscillates alternatively clockwise and counterclockwise through an arc of 4° 45′ at a frequency of one oscillation cycle—i. e., one clockwise rotation and one counterclockwise rotation—every 10 seconds. The lower end of the pin is immersed by the sample; the upper end is suspended from a torsion wire. The TEG analyzer records a single measurement of rotation-induced torque after each clockwise rotation and after each counterclockwise rotation of the cup. “The torque of the rotating cup is transmitted to the immersed pin only after fibrin-platelet bonding has linked the cup and [the] pin together. The strength of these fibrin-platelet bonds affects the magnitude of the pin motion, such that strong clots move the pin directly in phase with the cup motion. Thus, the magnitude of the output is directly related to the strength of the formed clot . . . . [If] the clot retracts or lyses, these bonds are broken and the transfer of cup motion is diminished. The rotation movement of the pin is converted by a mechanical-electrical transducer to an electrical signal which can be monitored by a computer” (TEG 5000 User Manual, pp 3-4, 1999-2007)). The computer converts the series of electrical signals into the TEG tracing."}},
  "data": [
    {"substance": "9.3T: FIXa aptamer, 2'-fluoropyrimidine modified RNA, SEQ ID NO: 1 (AUGGGGACUAUACCGCGUAAUGCUGCCUCCCCAU; 2'-fluoro at CU, RNA at AG, backbone not given here) [Aptamer 9.3T]", "values": [
      {"measurement": "ACT+ maximal clotting time", "setting": "[1]", "value": "had no effect"},
      {"measurement": "clot formation (in words)", "setting": "[2]", "value": "none of those aptamers prevented clot formation"}
    ]},
    {"substance": "11F7T: FXa aptamer, 2'-fluoropyrimidine modified RNA, SEQ ID NO: 2 (GAGAGCCCCAGCGAGAUAAUACUUGGCCCCGCUCUU; 2'-fluoro at CU, RNA at AG, backbone not given here) [Aptamer 11F7T]", "values": [
      {"measurement": "ACT+ maximal clotting time", "setting": "[1]", "value": 213, "unit": "s"},
      {"measurement": "MA", "setting": "[2]; 1.0 micromolar, buffer 69.7 mm", "value": 59.5, "unit": "mm"},
      {"measurement": "R, lag time", "setting": "[2]; 1.0 micromolar, buffer 4.4 minutes", "value": 17.8, "unit": "min"},
      {"measurement": "α", "setting": "[2]; 1.0 micromolar, buffer about 55 degrees", "value": 24, "unit": "degrees"},
      {"measurement": "clot formation (in words)", "setting": "[2]", "value": "did not prevent the ultimate development of clot"}
    ]},
    {"substance": "R9D-14T: prothrombin/thrombin aptamer, 58-base truncation of RNA9D-14, SEQ ID NO: 3 (GGCGGTCGATCACACAGTTCAAACGTAATAAGCCAATGTACGAGGCAGACGACTCGCC; 2'-fluoro at CT, RNA at AG, backbone and T or U not given here) [Aptamer R9D-14T]", "values": [
      {"measurement": "ACT+ maximal clotting time", "setting": "[1]", "value": 365, "unit": "s"}
    ]}
  ]
}
